Tests used:
guineagrass = assay: Test E pre-/postemergence herbicide test; assay type: in vivo, Panicum maximum; conditions: Preemergence
Outline: (§1)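 Greenhouse whole-plant test: compounds formulated in a non-phytotoxic solvent mixture with surfactant were applied preemergence to planted seeds and, concurrently, postemergence to plants 2 to 18 cm tall. Response was scored visually after 12 to 14 days, 0 meaning no effect and 100 complete control.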

dallisgrass = assay: Test E pre-/postemergence herbicide test; assay type: in vivo, Paspalum dilatatum; conditions: Preemergence
Outline: as §1

green foxtail [1] = assay: Test C postemergence herbicide test; assay type: in vivo, Setaria viridis
Outline: (§2)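 Scoring by eye, 12–14 days post-treatment, greenhouse-held plants vs. controls; 0 no effect, 100 complete control. Sprayed at 1–4 leaves (2–18 cm); paddy barnyardgrass at 2 leaves, flooded.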

wild oat = assay: Test C postemergence herbicide test; assay type: in vivo, Avenafatua
Outline: as §2

Italian ryegrass = assay: Test E pre-/postemergence herbicide test; assay type: in vivo, Lolium multiflorum; conditions: Preemergence
Outline: as §1

Surinam grass = assay: Test E pre-/postemergence herbicide test; assay type: in vivo, Urochloa decumbens; conditions: Preemergence
Outline: as §1

windgrass = assay: Test C postemergence herbicide test; assay type: in vivo, Apera spica-venti
Outline: as §2

broadleaf signalgrass = assay: Test E pre-/postemergence herbicide test; assay type: in vivo, Brachiaria platyphylla; conditions: Preemergence
Outline: as §1

southern sandbur = assay: Test E pre-/postemergence herbicide test; assay type: in vivo, Cenchrus echinatus; conditions: Preemergence
Outline: as §1

Canada horseweed = assay: Test E pre-/postemergence herbicide test; assay type: in vivo, Erigeron Canadensis; conditions: Preemergence
Outline: as §1

green foxtail [2] = assay: Test E pre-/postemergence herbicide test; assay type: in vivo, Setaria viridis; conditions: Preemergence
Outline: as §1

bermudagrass = assay: Test E pre-/postemergence herbicide test; assay type: in vivo, Cynodon dactylon; conditions: Preemergence
Outline: as §1

winter barley = assay: Test C postemergence herbicide test; assay type: in vivo, Hordeum vulgare
Outline: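 Postemergence sprays applied to plants 2 to 18 cm tall (1- to 4-leaf stage); paddy species grown to 2-leaf stage under flooding. After 12 to 14 days in greenhouse, visual rating versus untreated controls on 0–100 scale (0 no effect, 100 complete control).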

field bindweed = assay: Test E pre-/postemergence herbicide test; assay type: in vivo, Convolvulus arvensis; conditions: Preemergence
Outline: as §1

[3] = 250 g ai/ha, scale 0 (no effect) to 100 (complete control)
[4] = 500 g ai/ha, scale 0 (no effect) to 100 (complete control)
[5] = Postemergence, 250 g ai/ha, scale 0 to 100, 0 no effect, 100 complete control
[6] = Postemergence, 500 g ai/ha, scale 0 to 100, 0 no effect, 100 complete control
[7] = postemergence, 125 g ai/ha, scale 0 to 100
[8] = postemergence, 62 g ai/ha, scale 0 to 100
[9] = Postemergence, 125 g ai/ha, scale 0 to 100, 0 no effect, 100 complete control
[10] = postemergence, 62 g ai/ha, scale 0 to 100 (0 no effect, 100 complete control)

In the case of `CCNC(=O)c1cccc(NC(=O)c2nn(C(C)(C)C)nc2C)c1` [Compound 392], the “Plant response rating, Guineagrass” value (guineagrass; 62 g ai/ha, scale 0 to 100) is reported as 75, the “Plant response rating, Guineagrass” value (guineagrass; 125 g ai/ha, scale 0 to 100) is reported as 80 and the “Plant response rating, Guineagrass” value (guineagrass; [3]) is reported as 95. The “Plant response rating, Guineagrass” value (guineagrass; [4]) was 100, the “Plant response rating, Dallisgrass” value (dallisgrass; 62 g ai/ha, scale 0 to 100) was 10 and the “Plant response rating, Dallisgrass” value (dallisgrass; 125 g ai/ha, scale 0 to 100) was 60. The “Plant response rating, Dallisgrass” value (dallisgrass; [3]) was 75, the “Plant response rating, Dallisgrass” value (dallisgrass; [4]) was 100 and the “Plant response rating, Foxtail, Green” value (green foxtail [1]; [5]) was 65. For the same compound, the “Plant response rating, Foxtail, Green” value (green foxtail [1]; [6]) was 70, the “Plant response rating, Foxtail, Green” value (green foxtail [1]; [7]) was 60 and the “Plant response rating, Foxtail, Green” value (green foxtail [1]; [8]) was 60. The “Plant response rating, Oat, Wild” value (wild oat; [6]) was 60, the “Plant response rating, Oat, Wild” value (wild oat; [7]) was 40 and the “Plant response rating, Oat, Wild” value (wild oat; [8]) was 30. The “Plant response rating, Ryegrass, Italian” value (Italian ryegrass; 62 g ai/ha, scale 0 to 100) was 10, the “Plant response rating, Ryegrass, Italian” value (Italian ryegrass; 125 g ai/ha, scale 0 to 100) was 60 and the “Plant response rating, Ryegrass, Italian” value (Italian ryegrass; [3]) was 70. The “Plant response rating, Ryegrass, Italian” value (Italian ryegrass; [4]) was 80, the “Plant response rating, Surinam Grass” value (Surinam grass; 125 g ai/ha, scale 0 to 100) was 60 and the “Plant response rating, Surinam Grass” value (Surinam grass; [4]) was 95. For the same compound, the “Plant response rating, Windgrass” value (windgrass; [6]) was 65, the “Plant response rating, Windgrass” value (windgrass; [7]) was 55 and the “Plant response rating, Windgrass” value (windgrass; [8]) was 35. The “Plant response rating, Signalgrass” value (broadleaf signalgrass; 62 g ai/ha, scale 0 to 100) was 10, the “Plant response rating, Signalgrass” value (broadleaf signalgrass; 125 g ai/ha, scale 0 to 100) was 30 and the “Plant response rating, Signalgrass” value (broadleaf signalgrass; [3]) was 70. For the same compound, the “Plant response rating, Signalgrass” value (broadleaf signalgrass; [4]) was 85, the “Plant response rating, Sandbur” value (southern sandbur; 62 g ai/ha, scale 0 to 100) was 0 and the “Plant response rating, Sandbur” value (southern sandbur; 125 g ai/ha, scale 0 to 100) was 10. For the same compound, the “Plant response rating, Sandbur” value (southern sandbur; [3]) was 20, the “Plant response rating, Sandbur” value (southern sandbur; [4]) was 70 and the “Plant response rating, Horseweed” value (Canada horseweed; 62 g ai/ha, scale 0 to 100) was 60. For the same compound, the “Plant response rating, Horseweed” value (Canada horseweed; 125 g ai/ha, scale 0 to 100) was 60, the “Plant response rating, Horseweed” value (Canada horseweed; [3]) was 75 and the “Plant response rating, Horseweed” value (Canada horseweed; [4]) was 85. For the same compound, the “Plant response rating, Foxtail, Green” value (green foxtail [2]; 62 g ai/ha, scale 0 to 100) was 10, the “Plant response rating, Foxtail, Green” value (green foxtail [2]; [3]) was 70 and the “Plant response rating, Foxtail, Green” value (green foxtail [2]; [4]) was 95. The “Plant response rating, Bermudagrass” value (bermudagrass; 62 g ai/ha, scale 0 to 100) was 60, the “Plant response rating, Bermudagrass” value (bermudagrass; 125 g ai/ha, scale 0 to 100) was 60 and the “Plant response rating, Bermudagrass” value (bermudagrass; [3]) was 85. The “Plant response rating, Bermudagrass” value (bermudagrass; [4]) was 90, the “Barley, Winter plant response rating” value (winter barley; Postemergence, 500 g ai/ha, scale 0 to 100) was 35 and the “Plant response rating, Barley, Winter” value (winter barley; [9]) was 35. The “Plant response rating, Barley, Winter” value (winter barley; [5]) was 35, the “Plant response rating, Barley, Winter” value (winter barley; [10]) was 35 and the “Plant response rating, Bindweed, Field” value (field bindweed; 62 g ai/ha, scale 0 to 100) was 30. The “Plant response rating, Bindweed, Field” value (field bindweed; 125 g ai/ha, scale 0 to 100) was 30, the “Plant response rating, Bindweed, Field” value (field bindweed; [3]) was 100 and the “Plant response rating, Bindweed, Field” value (field bindweed; [4]) was 100.

For `Cc1nn(C(C)(C)C)nc1C(=O)Nc1cccc(C(=O)N2CC=CC2)c1` [Compound 393], the “Plant response rating, Guineagrass” value (guineagrass; 62 g ai/ha, scale 0 to 100) was 10, the “Plant response rating, Guineagrass” value (guineagrass; 125 g ai/ha, scale 0 to 100) was 70 and the “Plant response rating, Guineagrass” value (guineagrass; [3]) was 90. The “Plant response rating, Guineagrass” value (guineagrass; [4]) was 95, the “Plant response rating, Dallisgrass” value (dallisgrass; 62 g ai/ha, scale 0 to 100) was 0 and the “Plant response rating, Dallisgrass” value (dallisgrass; 125 g ai/ha, scale 0 to 100) was 10. For the same compound, the “Plant response rating, Dallisgrass” value (dallisgrass; [3]) was 75, the “Plant response rating, Dallisgrass” value (dallisgrass; [4]) was 85 and the “Plant response rating, Foxtail, Green” value (green foxtail [1]; [5]) was 65. The “Plant response rating, Foxtail, Green” value (green foxtail [1]; [7]) was 65, the “Plant response rating, Foxtail, Green” value (green foxtail [1]; [8]) was 60 and the “Plant response rating, Oat, Wild” value (wild oat; [7]) was 65. For the same compound, the “Plant response rating, Oat, Wild” value (wild oat; [8]) was 55, the “Plant response rating, Ryegrass, Italian” value (Italian ryegrass; 62 g ai/ha, scale 0 to 100) was 10 and the “Plant response rating, Ryegrass, Italian” value (Italian ryegrass; 125 g ai/ha, scale 0 to 100) was 20. The “Plant response rating, Ryegrass, Italian” value (Italian ryegrass; [3]) was 85, the “Plant response rating, Ryegrass, Italian” value (Italian ryegrass; [4]) was 85 and the “Plant response rating, Surinam Grass” value (Surinam grass; 125 g ai/ha, scale 0 to 100) was 20. For the same compound, the “Plant response rating, Surinam Grass” value (Surinam grass; [4]) was 70, the “Plant response rating, Windgrass” value (windgrass; [7]) was 55 and the “Plant response rating, Windgrass” value (windgrass; [8]) was 45. The “Plant response rating, Signalgrass” value (broadleaf signalgrass; 62 g ai/ha, scale 0 to 100) was 0, the “Plant response rating, Signalgrass” value (broadleaf signalgrass; 125 g ai/ha, scale 0 to 100) was 30 and the “Plant response rating, Signalgrass” value (broadleaf signalgrass; [3]) was 75. For the same compound, the “Plant response rating, Signalgrass” value (broadleaf signalgrass; [4]) was 85, the “Plant response rating, Sandbur” value (southern sandbur; 62 g ai/ha, scale 0 to 100) was 0 and the “Plant response rating, Sandbur” value (southern sandbur; 125 g ai/ha, scale 0 to 100) was 50. The “Plant response rating, Sandbur” value (southern sandbur; [3]) was 50, the “Plant response rating, Sandbur” value (southern sandbur; [4]) was 60 and the “Plant response rating, Horseweed” value (Canada horseweed; 62 g ai/ha, scale 0 to 100) was 90. The “Plant response rating, Horseweed” value (Canada horseweed; 125 g ai/ha, scale 0 to 100) was 95, the “Plant response rating, Horseweed” value (Canada horseweed; [3]) was 100 and the “Plant response rating, Horseweed” value (Canada horseweed; [4]) was 100. For the same compound, the “Plant response rating, Foxtail, Green” value (green foxtail [2]; 62 g ai/ha, scale 0 to 100) was 10, the “Plant response rating, Foxtail, Green” value (green foxtail [2]; 125 g ai/ha, scale 0 to 100) was 20 and the “Plant response rating, Foxtail, Green” value (green foxtail [2]; [3]) was 70. For the same compound, the “Plant response rating, Foxtail, Green” value (green foxtail [2]; [4]) was 90, the “Plant response rating, Bermudagrass” value (bermudagrass; 62 g ai/ha, scale 0 to 100) was 40 and the “Plant response rating, Bermudagrass” value (bermudagrass; 125 g ai/ha, scale 0 to 100) was 90. The “Plant response rating, Bermudagrass” value (bermudagrass; [3]) was 95, the “Plant response rating, Bermudagrass” value (bermudagrass; [4]) was 100 and the “Plant response rating, Barley, Winter” value (winter barley; [9]) was 35. For the same compound, the “Plant response rating, Barley, Winter” value (winter barley; [5]) was 35, the “Plant response rating, Barley, Winter” value (winter barley; postemergence, 31 g ai/ha, scale 0 to 100) was 20 and the “Plant response rating, Barley, Winter” value (winter barley; [10]) was 35. The “Plant response rating, Bindweed, Field” value (field bindweed; 62 g ai/ha, scale 0 to 100) was 0, the “Plant response rating, Bindweed, Field” value (field bindweed; 125 g ai/ha, scale 0 to 100) was 20 and the “Plant response rating, Bindweed, Field” value (field bindweed; [3]) was 60. For the same compound, the “Plant response rating, Bindweed, Field” value (field bindweed; [4]) was 70.

— patent publication US20060069132A1, “Azolecarboxamide herbicides” (priority 2004, published 2006)
